Literature values as cited in US12285521B2, “Pharmaceutical formulation” (Klaria Pharma Holding AB, priority 2016, dated 2025).

What was measured:
[1] = system: migraine; details: subcutaneous administration, 6 mg sumatriptan
[2] = system: migraine; details: to be achieved within 60 minutes after dosing

For `CNS(=O)(=O)Cc1ccc2[nH]cc(CCN(C)C)c2c1` [sumatriptan], the “time of maximum plasma concentration” value (after intranasal administration) is listed as 1 to 1.5 h, the mean intranasal bioavailability (intranasal, after a 20 mg dose) is listed as 15.8% and the mean maximum concentration (intranasal, after a 20 mg dose) is listed as 12.9 ng/mL. For the same compound, the “people with pain reduced from moderate or severe to none within two hours” value [1] was ~60% and the “plasma level for the most reliable migraine-relieving effect” value [2] was “over 9.44 ng/mL”.
